Target: T1, squalene synthase (Homo sapiens, UniProt P37268)
T1 construct: PREPARATION OF HUMAN HEPG2 CELL ENZYME; host or cells: HepG2 (human hepatoblastoma), sonicated cell extract
T1 sequence (P37268 1-417): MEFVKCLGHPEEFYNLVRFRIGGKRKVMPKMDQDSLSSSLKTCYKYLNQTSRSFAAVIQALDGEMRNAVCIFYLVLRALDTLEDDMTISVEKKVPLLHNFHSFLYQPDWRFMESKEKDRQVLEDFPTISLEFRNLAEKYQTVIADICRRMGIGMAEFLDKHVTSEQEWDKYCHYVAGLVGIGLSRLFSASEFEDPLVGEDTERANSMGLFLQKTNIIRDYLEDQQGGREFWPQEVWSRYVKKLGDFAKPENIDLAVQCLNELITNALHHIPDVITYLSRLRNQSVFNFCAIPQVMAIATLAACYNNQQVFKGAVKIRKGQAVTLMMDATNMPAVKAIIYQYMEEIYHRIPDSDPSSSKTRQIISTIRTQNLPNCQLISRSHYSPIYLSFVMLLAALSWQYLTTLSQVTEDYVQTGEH
Test: Squalene synthase assay with human HepG2 cell enzyme
Assay type: biochemical
Details: HepG2 enzyme preparation, 3 μM 3H-farnesyl pyrophosphate substrate, 30° C., 20 minutes; read-out: IC50 (squalene synthase inhibition)
Experimental: The intrinsic squalene synthase inhibitory activity of the compounds of this invention was measured by the standard in vitro protocol described below:
PREPARATION OF HUMAN HEPG2 CELL ENZYME
1. Source: HEPG2 CELL LINE (Liver, hepatoblastoma, Human) ATCC No. HB 8065
Culture Medium: Minimum essential medium (MEM) with non-essential amino acids, sodium pyruvate, and 10% fetal bovine serum. The medium was changed twice weekly. […] The growth medium is prepared as listed below.
48 hrs. prior to harvest, switch cells grown in MEM with Fetal Calf serum to MEM with 10% delipidated serum.
Remove medium, wash with PBS, add fresh trypsin (0.25%)-EDTA (0.02%) with Hank's Balanced Salt solution, rinse and remove. Incubate flask at 37° C. until cells detach. Add 6 mL of MEM medium per flask to suspend cells and combine into centrifuge tube. […]
For each reaction, 55 μL of buffer mixture was taken with 5 μL of an inhibitor solution in DMSO and 10 μL of diluted enzyme (1 to 250 as described in the enzyme preparation; the final protein concentration of enzyme in the assay is 2 μg per mL.). […] 150 μL of heptane layer was then removed into a 96 deep well plate and mixed with 150 μL of scintillation fluid and the radioactivity was determined by liquid scintillation counting. […]
IC50 values were determined by plotting the log of the concentration of the test compound versus the percentage inhibition. […]

`C=C(CCC(=O)C(O)C(OC(=O)/C=C/C(C)CC(C)CC)C(=O)O)C(OC(C)=O)C(C)Cc1ccccc1` (stereo not shown) [Composition A] showed an IC50 of under 2000 nM.
